{
  "source": "PubChem BioAssay AID180",
  "about": "(DTP/NCI, 2004)",
  "system": "BDF1 mice, Adenocarcinoma 755 s.c., tumor weight T/C",
  "assay": "NCI In Vivo Anticancer Drug Screen. Data for tumor model Adenocarcinoma 755 (subcutaneous) in B6D2F1 (BDF1) mice",
  "conditions": "endpoint: mean tumor weight, higher = larger tumour",
  "in_short": "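In vivo antitumor screen on a transplantable tumor line. Result equals the measure in compound-treated animals divided by the same measure in vehicle controls.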",
  "key": {"[1]": {"conditions": "dose: 25.0 mg/kg/injection, schedule: Q01DX011 (ip), vehicle: methylcellulose (MC)"}, "[2]": {"conditions": "dose: 50.0 mg/kg/injection, schedule: Q01DX011 (ip), vehicle: methylcellulose (MC)"}},
  "note": "Values joined by “and” are separate entries in the source; they are usually repeats but may differ in a detail not shown here. Equal entries are not always repeated.",
  "data": [
    {"compound": "CS(=O)(=O)OCCC(=O)N1CCN(C(=O)CCOS(C)(=O)=O)CC1", "values": [
      {"measurement": "T/C", "setting": "dose: 9.4 mg/kg/injection, schedule: Q01DX011 (ip), vehicle: methylcellulose (MC)", "result": "73 % of control"},
      {"measurement": "T/C", "setting": "dose: 22.0 mg/kg/injection, schedule: Q01DX011 (ip), vehicle: methylcellulose (MC)", "result": "24 % of control and 45 % of control"},
      {"measurement": "T/C", "setting": "dose: 37.5 mg/kg/injection, schedule: Q01DX011 (ip), vehicle: methylcellulose (MC)", "result": "15 % of control"},
      {"measurement": "T/C", "setting": "dose: 44.0 mg/kg/injection, schedule: Q01DX011 (ip), vehicle: methylcellulose (MC)", "result": "9 % of control and 18 % of control"},
      {"measurement": "T/C", "setting": "dose: 88.0 mg/kg/injection, schedule: Q01DX011 (ip), vehicle: methylcellulose (MC)", "result": "3 % of control and 6 % of control"}
    ]},
    {"compound": "O=C(O)C1CCCN1c1ncnc2nc[nH]c12", "note": "(stereo not given)", "values": [
      {"measurement": "T/C", "setting": "dose: 25.0 mg/kg/injection, schedule: Q01DX011 (ip), vehicle: saline", "result": "115 % of control"},
      {"measurement": "T/C", "setting": "dose: 75.0 mg/kg/injection, schedule: Q01DX011 (ip), vehicle: saline", "result": "104 % of control"}
    ]},
    {"compound": "c1cncc(CSc2ncnc3nc[nH]c23)c1", "values": [
      {"measurement": "T/C", "setting": "dose: 0.78 mg/kg/injection, schedule: Q01DX011 (ip), vehicle: methylcellulose (MC)", "result": "79 % of control"},
      {"measurement": "T/C", "setting": "dose: 1.55 mg/kg/injection, schedule: Q01DX011 (ip), vehicle: methylcellulose (MC)", "result": "40 % of control"},
      {"measurement": "T/C", "setting": "dose: 3.1 mg/kg/injection, schedule: Q01DX011 (ip), vehicle: methylcellulose (MC)", "result": "61 % of control"},
      {"measurement": "T/C", "setting": "dose: 6.25 mg/kg/injection, schedule: Q01DX011 (ip), vehicle: methylcellulose (MC)", "result": "8 % of control and 20 % of control"},
      {"measurement": "T/C", "setting": "dose: 12.5 mg/kg/injection, schedule: Q01DX011 (ip), vehicle: methylcellulose (MC)", "result": "4 % of control"},
      {"measurement": "T/C", "setting": "[1]", "result": "2 % of control"},
      {"measurement": "T/C", "setting": "[2]", "result": "2 % of control"}
    ]},
    {"compound": "Nc1ccn(C2OC(CO)C(O)C2O)c(=O)n1", "note": "(stereo not given)", "values": [
      {"measurement": "T/C", "setting": "dose: 15.0 mg/kg/injection, schedule: Q01DX011 (ip), vehicle: saline", "result": "36 % of control"},
      {"measurement": "T/C", "setting": "dose: 27.0 mg/kg/injection, schedule: Q01DX011 (ip), vehicle: saline", "result": "14 % of control"},
      {"measurement": "T/C", "setting": "dose: 30.0 mg/kg/injection, schedule: Q01DX011 (ip), vehicle: saline", "result": "36 % of control"},
      {"measurement": "T/C", "setting": "dose: 40.0 mg/kg/injection, schedule: Q01DX011 (ip), vehicle: saline", "result": "7 % of control"},
      {"measurement": "T/C", "setting": "dose: 60.0 mg/kg/injection, schedule: Q## X024 (ip), vehicle: saline", "result": "15 % of control"},
      {"measurement": "T/C", "setting": "dose: 120.0 mg/kg/injection, schedule: Q## X024 (ip), vehicle: saline", "result": "8 % of control"}
    ]},
    {"compound": "Nc1ccccc1N", "values": [
      {"measurement": "T/C", "setting": "dose: 31.25 mg/kg/injection, schedule: Q01DX011 (ip), vehicle: methylcellulose (MC)", "result": "80 % of control"},
      {"measurement": "T/C", "setting": "dose: 62.5 mg/kg/injection, schedule: Q01DX011 (ip), vehicle: methylcellulose (MC)", "result": "40 % of control"},
      {"measurement": "T/C", "setting": "dose: 125.0 mg/kg/injection, schedule: Q01DX011 (ip), vehicle: methylcellulose (MC)", "result": "55 % of control"}
    ]},
    {"compound": "CSc1ncc(Br)c(SC)n1", "values": [
      {"measurement": "T/C", "setting": "dose: 31.0 mg/kg/injection, schedule: Q01DX011 (ip), vehicle: methylcellulose (MC)", "result": "102 % of control"},
      {"measurement": "T/C", "setting": "dose: 62.0 mg/kg/injection, schedule: Q01DX011 (ip), vehicle: methylcellulose (MC)", "result": "93 % of control"}
    ]},
    {"compound": "C[C@H](CCC(=O)O)[C@H]1CC[C@H]2[C@@H]3[C@H](O)C[C@@H]4C[C@H](O)CC[C@]4(C)[C@H]3C[C@H](O)[C@]12C", "note": "(tested in a mixture with another compound)", "values": [
      {"measurement": "T/C", "setting": "dose: 80.0 mg/kg/injection, schedule: Q01DX011 (ip), vehicle: methylcellulose (MC)", "result": "31 % of control and 53 % of control"},
      {"measurement": "T/C", "setting": "dose: 160.0 mg/kg/injection, schedule: Q01DX011 (ip), vehicle: methylcellulose (MC)", "result": "76 % of control"},
      {"measurement": "T/C", "setting": "dose: 320.0 mg/kg/injection, schedule: Q01DX011 (ip), vehicle: methylcellulose (MC)", "result": "36 % of control"}
    ]},
    {"compound": "OCCNc1ncnc2c1ncn2C1OC(CO)C(O)C1O", "note": "(stereo not given)", "values": [
      {"measurement": "T/C", "setting": "[1]", "result": "55 % of control"},
      {"measurement": "T/C", "setting": "[2]", "result": "49 % of control"},
      {"measurement": "T/C", "setting": "dose: 75.0 mg/kg/injection, schedule: Q01DX011 (ip), vehicle: methylcellulose (MC)", "result": "17 % of control"},
      {"measurement": "T/C", "setting": "dose: 100.0 mg/kg/injection, schedule: Q01DX011 (ip), vehicle: methylcellulose (MC)", "result": "27 % of control"},
      {"measurement": "T/C", "setting": "dose: 200.0 mg/kg/injection, schedule: Q01DX011 (ip), vehicle: methylcellulose (MC)", "result": "7 % of control"}
    ]},
    {"compound": "NS(=O)(=O)c1nc2nc[nH]c2c(=O)[nH]1", "values": [
      {"measurement": "T/C", "setting": "dose: 25.0 mg/kg/injection, schedule: Q01DX011 (ip), vehicle: carboxymethylcellulose (CMC)", "result": "66 % of control"},
      {"measurement": "T/C", "setting": "dose: 75.0 mg/kg/injection, schedule: Q01DX011 (ip), vehicle: carboxymethylcellulose (CMC)", "result": "78 % of control"},
      {"measurement": "T/C", "setting": "dose: 225.0 mg/kg/injection, schedule: Q01DX011 (ip), vehicle: carboxymethylcellulose (CMC)", "result": "61 % of control"}
    ]},
    {"compound": "Nc1nc(N)c(N=O)c(Nc2ccc(Cl)c(Cl)c2)n1", "values": [
      {"measurement": "T/C", "setting": "dose: 1.75 mg/kg/injection, schedule: Q01DX011 (ip), vehicle: methylcellulose (MC)", "result": "90 % of control"},
      {"measurement": "T/C", "setting": "dose: 3.0 mg/kg/injection, schedule: Q01DX011 (ip), vehicle: carboxymethylcellulose (CMC)", "result": "76 % of control"},
      {"measurement": "T/C", "setting": "dose: 3.5 mg/kg/injection, schedule: Q01DX011 (ip), vehicle: methylcellulose (MC)", "result": "77 % of control"},
      {"measurement": "T/C", "setting": "dose: 4.0 mg/kg/injection, schedule: Q01DX011 (ip), vehicle: methylcellulose (MC)", "result": "61 % of control"},
      {"measurement": "T/C", "setting": "dose: 6.0 mg/kg/injection, schedule: Q01DX011 (ip), vehicle: methylcellulose (MC)", "result": "50 % of control"},
      {"measurement": "T/C", "setting": "dose: 7.0 mg/kg/injection, schedule: Q01DX011 (ip), vehicle: carboxymethylcellulose (CMC)", "result": "57 % of control"},
      {"measurement": "T/C", "setting": "dose: 7.0 mg/kg/injection, schedule: Q01DX011 (ip), vehicle: methylcellulose (MC)", "result": "48 % of control"},
      {"measurement": "T/C", "setting": "dose: 14.0 mg/kg/injection, schedule: Q01DX011 (ip), vehicle: carboxymethylcellulose (CMC)", "result": "45 % of control and 50 % of control"},
      {"measurement": "T/C", "setting": "dose: 14.0 mg/kg/injection, schedule: Q01DX011 (ip), vehicle: methylcellulose (MC)", "result": "25 % of control and 44 % of control"},
      {"measurement": "T/C", "setting": "dose: 28.0 mg/kg/injection, schedule: Q01DX011 (ip), vehicle: methylcellulose (MC)", "result": "21 % of control"},
      {"measurement": "T/C", "setting": "dose: 57.0 mg/kg/injection, schedule: Q01DX011 (ip), vehicle: carboxymethylcellulose (CMC)", "result": "66 % of control"},
      {"measurement": "T/C", "setting": "dose: 57.0 mg/kg/injection, schedule: Q01DX011 (ip), vehicle: methylcellulose (MC)", "result": "18 % of control"},
      {"measurement": "T/C", "setting": "dose: 114.0 mg/kg/injection, schedule: Q01DX011 (ip), vehicle: carboxymethylcellulose (CMC)", "result": "63 % of control"},
      {"measurement": "T/C", "setting": "dose: 228.0 mg/kg/injection, schedule: Q01DX011 (ip), vehicle: carboxymethylcellulose (CMC)", "result": "8 % of control"}
    ]},
    {"compound": "NC(CCSCc1ccc(N(CCCl)CCCl)cc1)C(=O)O", "note": "(stereo not given)", "values": [
      {"measurement": "T/C", "setting": "dose: 4.5 mg/kg/injection, schedule: Q01DX011 (ip), vehicle: saline", "result": "99 % of control and 74 % of control"},
      {"measurement": "T/C", "setting": "dose: 9.0 mg/kg/injection, schedule: Q01DX011 (ip), vehicle: saline", "result": "43 % of control and 54 % of control"},
      {"measurement": "T/C", "setting": "dose: 36.0 mg/kg/injection, schedule: Q01DX011 (ip), vehicle: saline", "result": "29 % of control"},
      {"measurement": "T/C", "setting": "dose: 54.0 mg/kg/injection, schedule: Q01DX011 (ip), vehicle: saline", "result": "21 % of control"}
    ]},
    {"compound": "CC(=O)OC1C(CO)OC(n2cnc3c(=S)nc[nH]c32)C1OC(C)=O", "note": "(stereo not given)", "values": [
      {"measurement": "T/C", "setting": "dose: 3.75 mg/kg/injection, schedule: Q01DX011 (ip), vehicle: carboxymethylcellulose (CMC)", "result": "38 % of control"},
      {"measurement": "T/C", "setting": "dose: 7.5 mg/kg/injection, schedule: Q01DX011 (ip), vehicle: carboxymethylcellulose (CMC)", "result": "10 % of control"},
      {"measurement": "T/C", "setting": "dose: 15.0 mg/kg/injection, schedule: Q01DX011 (ip), vehicle: carboxymethylcellulose (CMC)", "result": "5 % of control"},
      {"measurement": "T/C", "setting": "dose: 30.0 mg/kg/injection, schedule: Q01DX011 (ip), vehicle: carboxymethylcellulose (CMC)", "result": "5 % of control and 7 % of control"},
      {"measurement": "T/C", "setting": "dose: 60.0 mg/kg/injection, schedule: Q01DX011 (ip), vehicle: carboxymethylcellulose (CMC)", "result": "7 % of control"},
      {"measurement": "T/C", "setting": "dose: 120.0 mg/kg/injection, schedule: Q01DX011 (ip), vehicle: carboxymethylcellulose (CMC)", "result": "6 % of control"}
    ]}
  ]
}
